Read-outs that look alike come from different tables or passages of the source.
Legend:
[1] = target: T1, BRAF V600E (Homo sapiens, UniProt P15056, V600E); experiment: Cellular assay of target protein degradation, T-Rex 293 cells stably transfected with HA-BRAF_V600E (HA immunofluorescence, high content imaging); format: cell-based
T1 construct: expressed in transfected cells
In short: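 HA immunofluorescence on fixed cells, imaged by high-content reader, measured loss of HA-BRAF V600E in stably transfected T-Rex 293 cells induced with 1 ng/mL doxycycline. Compounds were applied for 24 h at 37 °C (final 0.1 nM–1 μM, 0.1% DMSO); DC50 and Dmax (% of control) were reported.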

[2] = target: T2, BRAF G466V (Homo sapiens, UniProt P15056, G466V); experiment: Cellular assay of target protein degradation, T-Rex 293 cells stably transfected with HA-BRAF G466V (HA immunofluorescence, high content imaging); format: cell-based
T2 construct: expressed in transfected cells
In short: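 HA-BRAF G466V levels were read by HA immunofluorescence and high-content imaging after 24 h compound exposure (final 30 nM–3 pM, 0.1% DMSO, 37 °C). Expression was induced with 0.75 ng/mL doxycycline. Outputs: half-maximal degradation concentration (DC50) and maximal degradation (Dmax) relative to control.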

[3] = half maximal degradation, T-Rex 293 HA-BRAF V600E; read-out: BRaf V600E DC50
[4] = half maximal degradation, T-Rex 293 HA-BRAF G466V; read-out: BRaf G466V DC50
[5] = maximum degradation observed, T-Rex 293 HA-BRAF G466V
[6] = maximum degradation observed, T-Rex 293 HA-BRAF V600E

T1 sequence (P15056 whole entry V600E): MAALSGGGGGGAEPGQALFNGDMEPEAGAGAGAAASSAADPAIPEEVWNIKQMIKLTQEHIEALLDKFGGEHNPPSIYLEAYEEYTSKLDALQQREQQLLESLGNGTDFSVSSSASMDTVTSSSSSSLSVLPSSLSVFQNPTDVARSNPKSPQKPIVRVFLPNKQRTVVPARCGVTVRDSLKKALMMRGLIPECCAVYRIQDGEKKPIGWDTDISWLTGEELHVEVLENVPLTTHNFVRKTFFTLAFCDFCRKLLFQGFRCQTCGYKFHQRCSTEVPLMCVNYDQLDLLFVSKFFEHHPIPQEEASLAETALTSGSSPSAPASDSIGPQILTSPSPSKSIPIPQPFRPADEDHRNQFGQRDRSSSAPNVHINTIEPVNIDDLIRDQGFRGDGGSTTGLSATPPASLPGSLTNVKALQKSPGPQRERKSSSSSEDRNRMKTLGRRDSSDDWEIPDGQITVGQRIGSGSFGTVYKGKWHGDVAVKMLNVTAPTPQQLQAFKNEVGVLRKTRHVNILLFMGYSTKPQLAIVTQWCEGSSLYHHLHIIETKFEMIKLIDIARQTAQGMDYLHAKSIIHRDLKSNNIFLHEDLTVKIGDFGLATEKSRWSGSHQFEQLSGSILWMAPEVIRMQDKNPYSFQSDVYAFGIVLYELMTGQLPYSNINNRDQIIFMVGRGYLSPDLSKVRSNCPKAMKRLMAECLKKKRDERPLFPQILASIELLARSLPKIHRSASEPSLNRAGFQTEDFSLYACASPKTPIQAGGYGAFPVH
T2 sequence (P15056 whole entry G466V): as the sequence (P15056 whole entry V600E) above, with G466V, E600V counted along it

Row | DC50 [1, 3] [nM] | DC50 [2, 4] [nM] | Dmax [2, 5] [%] | Dmax [1, 6] [%] | Structure (SMILES) | DC50 ([1]; read-out: BRaf V600E DC50; half maximal degradation, T-Rex 293 HA-BRAF V600E) [nM] | DC50 ([2]; read-out: BRaf G466V DC50; half maximal degradation, T-Rex 293 HA-BRAF G466V) [nM]
1 | > 500 | < 1 | 35 to 70 | – | O=C1CCC(N2Cc3cc(N4CCC(CN5CCC6(CCN(c7ccc(-c8cnc9[nH]cc(C(=O)c%10c(F)ccc(NS(=O)(=O)N%11CC[C@@H](F)C%11)c%10F)c9c8)cn7)CC6)C5)CC4)ccc3C2=O)C(=O)N1 (stereo partly drawn) [Compound 95, (3R)-N-[3-(5-{6-[2-({1-[2-(2,6-dioxopiperidin-3-yl)-1-oxo-2,3-dihydro-1H-isoindol-5-yl]piperidin-4-yl}methyl)-2,8-diazaspiro[4.5]decan-8-yl]pyridin-3-yl}-1H-pyrrolo[2,3-b]pyridine-3-carbonyl)-2,4-difluorophenyl]-3-fluoropyrrolidine-1-sulfonamide] | – | –
2 | 5 to 50 | 1 to 10 | > 70 | 35 to 70 | O=C1CCC(N2Cc3cc(N4CCN(C[C@@H](O)Cc5ccc(-c6cnc7[nH]cc(C(=O)c8c(F)ccc(NS(=O)(=O)N9CC[C@@H](F)C9)c8F)c7c6)cc5)CC4)ccc3C2=O)C(=O)N1 (stereo partly drawn) [Compound 98, (3R)-N-[3-(5-{4-[(2S)-3-{4-[2-(2,6-dioxopiperidin-3-yl)-1-oxo-2,3-dihydro-1H-isoindol-5-yl]piperazin-1-yl}-2-hydroxypropyl]phenyl}-1H-pyrrolo[2,3-b]pyridine-3-carbonyl)-2,4-difluorophenyl]-3-fluoropyrrolidine-1-sulfonamide] | – | –
3 | 5 to 50 | 1 to 10 | > 70 | 35 to 70 | O=C1CC[C@H](N2Cc3cc(C4CN(CC5CC6(C5)CN(c5ccc(-c7cnc8[nH]cc(C(=O)c9c(F)ccc(NS(=O)(=O)N%10CC[C@@H](F)C%10)c9F)c8c7)cc5)C6)C4)ccc3C2=O)C(=O)N1 [Compound 99, (3R)-N-{3-[5-(4-{6-[(3-{2-[(3S)-2,6-dioxopiperidin-3-yl]-1-oxo-2,3-dihydro-1H-isoindol-5-yl}azetidin-1-yl)methyl]-2-azaspiro[3.3]heptan-2-yl}phenyl)-1H-pyrrolo[2,3-b]pyridine-3-carbonyl]-2,4-difluorophenyl}-3-fluoropyrrolidine-1-sulfonamide] | – | –
4 | 5 to 50 | 1 to 10 | > 70 | 35 to 70 | O=C1CC[C@@H](N2Cc3cc(C4CN(CC5CC6(C5)CN(c5ccc(-c7cnc8[nH]cc(C(=O)c9c(F)ccc(NS(=O)(=O)N%10CC[C@@H](F)C%10)c9F)c8c7)cc5)C6)C4)ccc3C2=O)C(=O)N1 [Compound 100, (3R)-N-{3-[5-(4-{6-[(3-{2-[(3R)-2,6-dioxopiperidin-3-yl]-1-oxo-2,3-dihydro-1H-isoindol-5-yl}azetidin-1-yl)methyl]-2-azaspiro[3.3]heptan-2-yl}phenyl)-1H-pyrrolo[2,3-b]pyridine-3-carbonyl]-2,4-difluorophenyl}-3-fluoropyrrolidine-1-sulfonamide] | – | –
5 | 5 to 50 | 1 to 10 | > 70 | 35 to 70 | O=C1CCC(N2Cc3cc(N4CCN(CC5CN(c6ccc(-c7cnc8[nH]cc(C(=O)c9c(F)ccc(NS(=O)(=O)N%10CC[C@@H](F)C%10)c9F)c8c7)cn6)C5)CC4)ccc3C2=O)C(=O)N1 (stereo partly drawn) [Compound 101, (3R)-N-[3-(5-{6-[3-({4-[2-(2,6-dioxopiperidin-3-yl)-1-oxo-2,3-dihydro-1H-isoindol-5-yl]piperazin-1-yl}methyl)azetidin-1-yl]pyridin-3-yl}-1H-pyrrolo[2,3-b]pyridine-3-carbonyl)-2,4-difluorophenyl]-3-fluoropyrrolidine-1-sulfonamide] | – | –
6 | > 500 | 1 to 10 | 35 to 70 | > 70 | COc1cc(CN2CCN(c3ccc(-c4cnc5[nH]cc(C(=O)c6c(F)ccc(NS(=O)(=O)N7CC[C@@H](F)C7)c6F)c5c4)cc3)CC2)cc2c1C(=O)N(C1CCC(=O)NC1=O)C2 (stereo partly drawn) [Compound 102, (3R)-N-(3-{5-[4-(4-{[2-(2,6-dioxopiperidin-3-yl)-7-methoxy-1-oxo-2,3-dihydro-1H-isoindol-5-yl]methyl}piperazin-1-yl)phenyl]-1H-pyrrolo[2,3-b]pyridine-3-carbonyl}-2,4-difluorophenyl)-3-fluoropyrrolidine-1-sulfonamide] | – | –
7 | 5 to 50 | 1 to 10 | > 70 | 35 to 70 | O=C1CCC(N2Cc3cc(C4CCN(CC5CC6(C5)CN(c5ccc(-c7cnc8[nH]cc(C(=O)c9c(F)ccc(NS(=O)(=O)N%10CC[C@@H](F)C%10)c9F)c8c7)cn5)C6)CC4)ccc3C2=O)C(=O)N1 (stereo partly drawn) [Compound 103, (3R)-N-[3-(5-{6-[6-({4-[2-(2,6-dioxopiperidin-3-yl)-1-oxo-2,3-dihydro-1H-isoindol-5-yl]piperidin-1-yl}methyl)-2-azaspiro [3.3]heptan-2-yl]pyridin-3-yl}-1H-pyrrolo[2,3-b]pyridine-3-carbonyl)-2,4-difluorophenyl]-3-fluoropyrrolidine-1-sulfonamide] | – | –
8 | < 5 | 1 to 10 | > 70 | < 35 | O=C1CCC(N2Cc3cc(N4CCC(CN5CCC6(CCN(c7ccc(-c8cnc9[nH]cc(C(=O)c%10c(F)ccc(NS(=O)(=O)N%11CC[C@@H](F)C%11)c%10F)c9c8)cc7F)CC6)C5)CC4)ccc3C2=O)C(=O)N1 (stereo partly drawn) [Compound 104, (3R)-N-[3-(5-{4-[2-({1-[2-(2,6-dioxopiperidin-3-yl)-1-oxo-2,3-dihydro-1H-isoindol-5-yl]piperidin-4-yl}methyl)-2,8-diazaspiro [4.5]decan-8-yl]-3-fluorophenyl}-1H-pyrrolo [2,3-b]pyridine-3-carbonyl)-2,4-difluorophenyl]-3-fluoropyrrolidine-1-sulfonamide] | – | –
9 | 5 to 50 | 1 to 10 | 35 to 70 | 35 to 70 | O=C1CC[C@H](N2Cc3cc([C@H](O)CCN4CC5(C4)CN(c4ccc(-c6cnc7[nH]cc(C(=O)c8c(F)ccc(NS(=O)(=O)N9CC[C@@H](F)C9)c8F)c7c6)cc4)C5)ccc3C2=O)C(=O)N1 [Compound 105, (3R)—N-[3-[5-[4-[6-[(3R)-3-[2-[(3S)-2,6-dioxo-3-piperidyl]-1-oxo-isoindolin-5-yl]-3-hydroxy-propyl]-2,6-diazaspiro[3.3]heptan-2-yl]phenyl]-1H-pyrrolo[2,3-b]pyridine-3-carbonyl]-2,4-difluoro-phenyl]-3-fluoro-pyrrolidine-1-sulfonamide] | – | –
10 | 5 to 50 | 1 to 10 | > 70 | 35 to 70 | O=C1CC[C@H](N2Cc3cc([C@@H](O)CCN4CC5(C4)CN(c4ccc(-c6cnc7[nH]cc(C(=O)c8c(F)ccc(NS(=O)(=O)N9CC[C@@H](F)C9)c8F)c7c6)cc4)C5)ccc3C2=O)C(=O)N1 [Compound 106, (3R)-N-{3-[5-(4-{6-[(3S)-3-{2-[(3S)-2,6-dioxopiperidin-3-yl]-1-oxo-2,3-dihydro-1H-isoindol-5-yl}-3-hydroxypropyl]-2,6-diazaspiro[3.3]heptan-2-yl}phenyl)-1H-pyrrolo[2,3-b]pyridine-3-carbonyl]-2,4-difluorophenyl}-3-fluoropyrrolidine-1-sulfonamide] | – | –
11 | 5 to 50 | 1 to 10 | 35 to 70 | 35 to 70 | O=C1CC[C@H](N2Cc3cc(C[C@@H](O)CN4CCC(c5ccc(-c6cnc7[nH]cc(C(=O)c8c(F)ccc(NS(=O)(=O)N9CC[C@@H](F)C9)c8F)c7c6)cc5)CC4)ccc3C2=O)C(=O)N1 [Compound 107] | – | –
12 | 5 to 50 | 1 to 10 | > 70 | 35 to 70 | O=C1CC[C@@H](N2Cc3cc(C[C@@H](O)CN4CCC(c5ccc(-c6cnc7[nH]cc(C(=O)c8c(F)ccc(NS(=O)(=O)N9CC[C@@H](F)C9)c8F)c7c6)cc5)CC4)ccc3C2=O)C(=O)N1 [Compound 108, (3R)-N-{3-[5-(4-{1-[(2R)-3-{2-[(3R)-2,6-dioxopiperidin-3-yl]-1-oxo-2,3-dihydro-1H-isoindol-5-yl}-2-hydroxypropyl]piperidin-4-yl}phenyl)-1H-pyrrolo[2,3-b]pyridine-3-carbonyl]-2,4-difluorophenyl}-3-fluoropyrrolidine-1-sulfonamide] | – | –
13 | 5 to 50 | 1 to 10 | > 70 | 35 to 70 | O=C1CC[C@H](N2Cc3cc(C[C@H](O)CN4CCC(c5ccc(-c6cnc7[nH]cc(C(=O)c8c(F)ccc(NS(=O)(=O)N9CC[C@@H](F)C9)c8F)c7c6)cc5)CC4)ccc3C2=O)C(=O)N1 [Compound 109, (3R)-N-{3-[5-(4-{1-[(2S)-3-{2-[(3S)-2,6-dioxopiperidin-3-yl]-1-oxo-2,3-dihydro-1H-isoindol-5-yl}-2-hydroxypropyl]piperidin-4-yl}phenyl)-1H-pyrrolo[2,3-b]pyridine-3-carbonyl]-2,4-difluorophenyl}-3-fluoropyrrolidine-1-sulfonamide] | – | –

Row | Structure (SMILES) | DC50 [1, 3] [nM] | DC50 [2, 4] [nM] | Dmax [2, 5] [%] | Dmax [1, 6] [%] | DC50 ([1]; read-out: BRaf V600E DC50; half maximal degradation, T-Rex 293 HA-BRAF V600E) [nM] | DC50 ([2]; read-out: BRaf G466V DC50; half maximal degradation, T-Rex 293 HA-BRAF G466V) [nM]
14 | CC(C)(C1CCN(c2ccc(-c3cnc4[nH]cc(C(=O)c5c(F)ccc(NS(=O)(=O)N6CC[C@@H](F)C6)c5F)c4c3)cc2)CC1)N1CCN(c2ccc3c(c2)CN(C2CCC(=O)NC2=O)C3=O)CC1 (stereo partly drawn) [Compound 97, (3R)-N-[3-(5-{4-[4-(2-{4-[2-(2,6-dioxopiperidin-3-yl)-1-oxo-2,3-dihydro-1H-isoindol-5-yl]piperazin-1-yl}propan-2-yl)piperidin-1-yl]phenyl}-1H-pyrrolo[2,3-b]pyridine-3-carbonyl)-2,4-difluorophenyl]-3-fluoropyrrolidine-1-sulfonamide] | – | – | > 70 | 35 to 70 | 5 to 50 | 1 to 10
